From PubChem BioAssay AID1919003 (Molecular Pharmacology Branch, DTP, NCI, 2023)

System: 786-0 complex spheroids with HUVEC/MSC, growth % test/control
Assay: Anticancer human tumor 786-0 cell line growth inhibition [AhR];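 also: compound exposure lasted seven days before the read-out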
Conditions: for IC50: curve of first compound; for viability, T/C: stronger effect = lower value
How it was run: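 Spheroids combined tumor cells with HUVEC endothelial cells and human MSCs as stroma. AhR antagonists were paired with standard or investigational drugs, each dosed in half-log steps down from near clinical Cmax, or from 10 microM where Cmax was unknown.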

[1] = second compound 0.1 µM, first compound 0.000949 µM
[2] = second compound 0.1 µM, first compound 0.003 µM
[3] = second compound 0.1 µM, first compound 0.00949 µM
[4] = second compound 0.1 µM, first compound 0.03 µM
[5] = second compound 0.1 µM, first compound 0.0949 µM
[6] = second compound 0.1 µM, first compound 0.3 µM
[7] = second compound 0.316 µM, first compound 0.000949 µM
[8] = second compound 0.316 µM, first compound 0.003 µM
[9] = second compound 0.316 µM, first compound 0.00949 µM
[10] = second compound 0.316 µM, first compound 0.03 µM
[11] = second compound 0.316 µM, first compound 0.0949 µM
[12] = second compound 0.316 µM, first compound 0.3 µM
[13] = second compound 1 µM, first compound 0.000949 µM
[14] = second compound 1 µM, first compound 0.003 µM
[15] = second compound 1 µM, first compound 0.00949 µM
[16] = second compound 1 µM, first compound 0.03 µM
[17] = second compound 1 µM, first compound 0.0949 µM
[18] = second compound 1 µM, first compound 0.3 µM
[19] = second compound 3.16 µM, first compound 0.000949 µM
[20] = second compound 3.16 µM, first compound 0.003 µM
[21] = second compound 3.16 µM, first compound 0.00949 µM
[22] = second compound 3.16 µM, first compound 0.03 µM
[23] = second compound 3.16 µM, first compound 0.0949 µM
[24] = second compound 3.16 µM, first compound 0.3 µM
[25] = second compound 10 µM, first compound 0.000949 µM
[26] = second compound 10 µM, first compound 0.003 µM
[27] = second compound 10 µM, first compound 0.00949 µM
[28] = second compound 10 µM, first compound 0.03 µM
[29] = second compound 10 µM, first compound 0.0949 µM
[30] = second compound 10 µM, first compound 0.3 µM
[31] = second compound 0.1 µM, first compound 0.0316 µM
[32] = second compound 0.1 µM, first compound 0.1 µM
[33] = second compound 0.1 µM, first compound 0.316 µM
[34] = second compound 0.1 µM, first compound 1 µM
[35] = second compound 0.1 µM, first compound 3.16 µM
[36] = second compound 0.1 µM, first compound 10 µM
[37] = second compound 0.316 µM, first compound 0.0316 µM
[38] = second compound 0.316 µM, first compound 0.1 µM
[39] = second compound 0.316 µM, first compound 0.316 µM
[40] = second compound 0.316 µM, first compound 1 µM
[41] = second compound 0.316 µM, first compound 3.16 µM
[42] = second compound 0.316 µM, first compound 10 µM
[43] = second compound 1 µM, first compound 0.0316 µM
[44] = second compound 1 µM, first compound 0.1 µM
[45] = second compound 1 µM, first compound 0.316 µM
[46] = second compound 1 µM, first compound 1 µM
[47] = second compound 1 µM, first compound 3.16 µM
[48] = second compound 1 µM, first compound 10 µM
[49] = second compound 3.16 µM, first compound 0.0316 µM
[50] = second compound 3.16 µM, first compound 0.1 µM
[51] = second compound 3.16 µM, first compound 0.316 µM
[52] = second compound 3.16 µM, first compound 1 µM
[53] = second compound 3.16 µM, first compound 3.16 µM
[54] = second compound 3.16 µM, first compound 10 µM
[55] = second compound 10 µM, first compound 0.0316 µM
[56] = second compound 10 µM, first compound 0.1 µM
[57] = second compound 10 µM, first compound 0.316 µM
[58] = second compound 10 µM, first compound 1 µM
[59] = second compound 10 µM, first compound 3.16 µM
[60] = second compound 10 µM, first compound 10 µM

Compound: CC(C)CC(NC(=O)C(Cc1ccccc1)NC(=O)c1cnccn1)B(O)O (stereo not given) + Cc1cncc(-c2nc(NCCc3c[nH]c4ccccc34)c3ncn(C(C)C)c3n2)c1
- IC50 (second compound 0.1 µM): 17.8 nM
- IC50 (second compound 0.316 µM): 18.6 nM
- IC50 (second compound 1 µM): 17 nM
- IC50 (second compound 3.16 µM): 8.46 nM
- IC50 (second compound 10 µM): < 0.949 nM
- viability, T/C [1]: 136%
- viability, T/C [2]: 119%
- viability, T/C [3]: 103%
- viability, T/C [4]: 5.33%
- viability, T/C [5]: 0.52%
- viability, T/C [6]: 0.46%
- viability, T/C [7]: 127%
- viability, T/C [8]: 120%
- viability, T/C [9]: 118%
- viability, T/C [10]: 3.15%
- viability, T/C [11]: 0.85%
- viability, T/C [12]: 0.37%
- viability, T/C [13]: 102%
- viability, T/C [14]: 110%
- viability, T/C [15]: 96.9%
- viability, T/C [16]: 4.16%
- viability, T/C [17]: 0.6%
- viability, T/C [18]: 0.7%
- viability, T/C [19]: 70.7%
- viability, T/C [20]: 69.3%
- viability, T/C [21]: 47.8%
- viability, T/C [22]: 1.63%
- viability, T/C [23]: 0.28%
- viability, T/C [24]: 0.43%
- viability, T/C [25]: 10.2%
- viability, T/C [26]: 16%
- viability, T/C [27]: 2.59%
- viability, T/C [28]: 0.18%
- viability, T/C [29]: 0.17%
- viability, T/C [30]: 0.24%

Compound: CCc1c2c(nc3ccc(O)cc13)-c1cc3c(c(=O)n1C2)COC(=O)[C@]3(O)CC + Cc1cncc(-c2nc(NCCc3c[nH]c4ccccc34)c3ncn(C(C)C)c3n2)c1
- IC50 (second compound 0.1 µM): 6.02 nM
- IC50 (second compound 0.316 µM): 6.06 nM
- IC50 (second compound 1 µM): 5.1 nM
- IC50 (second compound 3.16 µM): 1.52 nM
- IC50 (second compound 10 µM): < 0.949 nM
- viability, T/C [1]: 106%
- viability, T/C [2]: 93.5%
- viability, T/C [3]: 21.5%
- viability, T/C [4]: 5.21%
- viability, T/C [5]: 2.42%
- viability, T/C [6]: 2.24%
- viability, T/C [7]: 112%
- viability, T/C [8]: 95.4%
- viability, T/C [9]: 21%
- viability, T/C [10]: 6.67%
- viability, T/C [11]: 3.31%
- viability, T/C [12]: 2.09%
- viability, T/C [13]: 99.5%
- viability, T/C [14]: 79.5%
- viability, T/C [15]: 15.4%
- viability, T/C [16]: 5.63%
- viability, T/C [17]: 2.53%
- viability, T/C [18]: 3.71%
- viability, T/C [19]: 65.7%
- viability, T/C [20]: 27.2%
- viability, T/C [21]: 4.92%
- viability, T/C [22]: 2.43%
- viability, T/C [23]: 1.6%
- viability, T/C [24]: 1.37%
- viability, T/C [25]: 1.65%
- viability, T/C [26]: 0.61%
- viability, T/C [27]: 0.43%
- viability, T/C [28]: 0.38%
- viability, T/C [29]: 0.28%
- viability, T/C [30]: 0.36%

Compound: Nc1ccccc1NC(=O)c1ccc(CNC(=O)OCc2cccnc2)cc1 + Cc1cncc(-c2nc(NCCc3c[nH]c4ccccc34)c3ncn(C(C)C)c3n2)c1
- IC50 (second compound 0.1 µM): 7200 nM
- IC50 (second compound 0.316 µM): 7820 nM
- IC50 (second compound 1 µM): 6750 nM
- IC50 (second compound 3.16 µM): 4610 nM
- IC50 (second compound 10 µM): < 31.6 nM
- viability, T/C [31]: 119%
- viability, T/C [32]: 114%
- viability, T/C [33]: 125%
- viability, T/C [34]: 115%
- viability, T/C [35]: 106%
- viability, T/C [36]: 27.8%
- viability, T/C [37]: 118%
- viability, T/C [38]: 114%
- viability, T/C [39]: 128%
- viability, T/C [40]: 126%
- viability, T/C [41]: 115%
- viability, T/C [42]: 32%
- viability, T/C [43]: 106%
- viability, T/C [44]: 113%
- viability, T/C [45]: 121%
- viability, T/C [46]: 108%
- viability, T/C [47]: 97%
- viability, T/C [48]: 25.6%
- viability, T/C [49]: 68.1%
- viability, T/C [50]: 71.4%
- viability, T/C [51]: 65.4%
- viability, T/C [52]: 60.5%
- viability, T/C [53]: 69.2%
- viability, T/C [54]: 15.2%
- viability, T/C [55]: 8.31%
- viability, T/C [56]: 9.06%
- viability, T/C [57]: 3.52%
- viability, T/C [58]: 0.75%
- viability, T/C [59]: 0.39%
- viability, T/C [60]: 0.77%

Compound: O=C(c1cc(Cc2n[nH]c(=O)c3ccccc23)ccc1F)N1CCN(C(=O)C2CC2)CC1 + Cc1cncc(-c2nc(NCCc3c[nH]c4ccccc34)c3ncn(C(C)C)c3n2)c1
- IC50 (second compound 0.1 µM): > 10000 nM
- IC50 (second compound 0.316 µM): > 10000 nM
- IC50 (second compound 1 µM): > 10000 nM
- IC50 (second compound 3.16 µM): > 10000 nM
- IC50 (second compound 10 µM): < 31.6 nM
- viability, T/C [31]: 125%
- viability, T/C [32]: 119%
- viability, T/C [33]: 133%
- viability, T/C [34]: 125%
- viability, T/C [35]: 120%
- viability, T/C [36]: 131%
- viability, T/C [37]: 115%
- viability, T/C [38]: 126%
- viability, T/C [39]: 123%
- viability, T/C [40]: 126%
- viability, T/C [41]: 128%
- viability, T/C [42]: 120%
- viability, T/C [43]: 112%
- viability, T/C [44]: 123%
- viability, T/C [45]: 112%
- viability, T/C [46]: 112%
- viability, T/C [47]: 121%
- viability, T/C [48]: 108%
- viability, T/C [49]: 80.2%
- viability, T/C [50]: 82.3%
- viability, T/C [51]: 82.8%
- viability, T/C [52]: 85.1%
- viability, T/C [53]: 79.3%
- viability, T/C [54]: 77.9%
- viability, T/C [55]: 10.6%
- viability, T/C [56]: 18%
- viability, T/C [57]: 9.64%
- viability, T/C [58]: 16.9%
- viability, T/C [59]: 15.3%
- viability, T/C [60]: 13%
